Measured values reported in ChEMBL document CHEMBL3124787, “Discovery of novel bis-oxazolidinone compounds as potential potent and selective antitubercular agents” (Bioorg Med Chem Lett, 2014).
≈ marks a conversion by molar mass, not a printed value.

Legend:
[1] = Lipophilicity, log P of the compound by HPLC analysis; assay type: physicochemical
Staphylococcus aureus [2] = assay: Antibacterial activity against methicillin-resistant Staphylococcus aureus ATCC 33591 assessed as growth inhibition after 18 hrs by broth microdilution method; assay type: functional; settings: ATCC 33591, 18 h
Escherichia coli = assay: Antibacterial activity against Escherichia coli ATCC 25922 assessed as growth inhibition after 18 hrs by broth microdilution method; assay type: functional; settings: ATCC 25922, 18 h
Staphylococcus aureus [3] = assay: Antibacterial activity against methicillin-susceptible Staphylococcus aureus CMCC 26003 assessed as growth inhibition after 18 hrs by broth microdilution method; assay type: functional; settings: CMCC 26003, 18 h
[4] = tested on: Mycolicibacterium smegmatis; assay: Antibacterial activity against Mycobacterium smegmatis assessed as growth inhibition after 18 hrs by broth microdilution method; assay type: functional
Staphylococcus aureus [5] = assay: Antibacterial activity against methicillin-resistant Staphylococcus aureus ATCC 43300 assessed as growth inhibition after 18 hrs by broth microdilution method; assay type: functional; settings: ATCC 43300, 18 h
Pseudomonas aeruginosa = assay: Antibacterial activity against Pseudomonas aeruginosa ATCC 27853 assessed as growth inhibition after 18 hrs by broth microdilution method; assay type: functional; settings: ATCC 27853, 18 h
Staphylococcus aureus [6] = assay: Antibacterial activity against methicillin-susceptible Staphylococcus aureus ATCC 25923 assessed as growth inhibition after 18 hrs by broth microdilution method; assay type: functional; settings: ATCC 25923, 18 h
[7] = Aqueous solubility of the compound by HPLC analysis; assay type: physicochemical
Staphylococcus aureus [8] = assay: Antibacterial activity against methicillin-susceptible Staphylococcus aureus ATCC 29213 assessed as growth inhibition after 18 hrs by broth microdilution method; assay type: functional; settings: ATCC 29213, 18 h
Staphylococcus aureus [9] = assay: Antibacterial activity against methicillin-susceptible Staphylococcus aureus ATCC 6538 assessed as growth inhibition after 18 hrs by broth microdilution method; assay type: functional; settings: ATCC 6538, 18 h
[10] = Selectivity index, ratio of IC50 for African green monkey Vero cells to MIC for Mycobacterium tuberculosis H37RV ATCC 27294; assay type: toxicity, cell-based; settings: read-out: Selectivity Index
[11] = tested on: Mycobacterium tuberculosis; assay: Antitubercular activity against Mycobacterium tuberculosis H37RV ATCC 27294 assessed as growth inhibition after 3 to 11 days by microdilution method; assay type: functional
Vero = assay: Cytotoxicity against African green monkey Vero cells after 48 hrs by MTT assay; assay type: cell-based; settings: Chlorocebus sabaeus

For `CC(=O)NC[C@H]1CN(c2ccc(OC[C@@H](O)CNCCC(C)C)c(F)c2)C(=O)O1`, the logP [1] was 1.17, the MIC99 (Staphylococcus aureus [2]) was > 32 µg/mL and the MIC99 (Escherichia coli) was > 32 µg/mL. For the same compound, the MIC99 (Staphylococcus aureus [3]) was > 32 µg/mL, the MIC99 [4] was > 64 µg/mL and the MIC99 (Staphylococcus aureus [5]) was > 32 µg/mL. The MIC99 (Pseudomonas aeruginosa) was > 32 µg/mL, the MIC99 (Staphylococcus aureus [6]) was > 32 µg/mL and the solubility [7] was 385 µM (≈ 158 µg/mL). The MIC99 (Staphylococcus aureus [8]) was > 32 µg/mL and the MIC99 (Staphylococcus aureus [9]) was > 32 µg/mL.
For `CC(=O)NC[C@H]1CN(c2ccc(OC[C@H](O)CNc3ccncc3)c(F)c2)C(=O)O1`, the logP [1] was 0.02, the MIC99 (Staphylococcus aureus [2]) was > 32 µg/mL and the MIC99 (Escherichia coli) was > 32 µg/mL. The MIC99 (Staphylococcus aureus [3]) was > 32 µg/mL, the MIC99 [4] was > 64 µg/mL and the MIC99 (Staphylococcus aureus [5]) was > 32 µg/mL. For the same compound, the MIC99 (Pseudomonas aeruginosa) was > 32 µg/mL, the MIC99 (Staphylococcus aureus [6]) was > 32 µg/mL and the solubility [7] was 24600 µM (≈ 10300 µg/mL). For the same compound, the MIC99 (Staphylococcus aureus [8]) was > 32 µg/mL and the MIC99 (Staphylococcus aureus [9]) was > 32 µg/mL.
In the case of `CC(=O)NC[C@H]1CN(c2ccc(OC[C@@H](O)CNC3CC3)c(F)c2)C(=O)O1`, the logP [1] is reported as 0.02, the MIC99 (Staphylococcus aureus [2]) is reported as > 32 µg/mL and the MIC99 (Escherichia coli) is reported as > 32 µg/mL. The MIC99 (Staphylococcus aureus [3]) was > 32 µg/mL, the MIC99 [4] was 32 µg/mL (≈ 83.9 µM) and the MIC99 (Staphylococcus aureus [5]) was > 32 µg/mL. The MIC99 (Pseudomonas aeruginosa) was > 32 µg/mL, the MIC99 (Staphylococcus aureus [6]) was > 32 µg/mL and the solubility [7] was 96000 µM (≈ 36600 µg/mL). For the same compound, the MIC99 (Staphylococcus aureus [8]) was > 32 µg/mL and the MIC99 (Staphylococcus aureus [9]) was > 32 µg/mL.
With `CC(=O)NC[C@H]1CN(c2ccc(OC[C@H](O)CNC3CC3)c(F)c2)C(=O)O1` the logP [1] was -0.1, the MIC99 (Staphylococcus aureus [2]) was > 32 µg/mL and the MIC99 (Escherichia coli) was > 32 µg/mL. The MIC99 (Staphylococcus aureus [3]) was > 32 µg/mL, the MIC99 [4] was > 64 µg/mL and the MIC99 (Staphylococcus aureus [5]) was > 32 µg/mL. The MIC99 (Pseudomonas aeruginosa) was > 32 µg/mL, the MIC99 (Staphylococcus aureus [6]) was > 32 µg/mL and the solubility [7] was 2200 µM (≈ 840 µg/mL). For the same compound, the MIC99 (Staphylococcus aureus [8]) was > 32 µg/mL and the MIC99 (Staphylococcus aureus [9]) was > 32 µg/mL.
In the case of `CC(=O)NC[C@H]1CN(c2ccc(OC[C@H](O)CNCCC(C)C)c(F)c2)C(=O)O1`, the logP [1] is reported as 1.19, the MIC99 (Staphylococcus aureus [2]) is reported as > 32 µg/mL and the MIC99 (Escherichia coli) is reported as > 32 µg/mL. For the same compound, the MIC99 (Staphylococcus aureus [3]) was > 32 µg/mL, the MIC99 [4] was > 64 µg/mL and the MIC99 (Staphylococcus aureus [5]) was > 32 µg/mL. For the same compound, the MIC99 (Pseudomonas aeruginosa) was > 32 µg/mL, the MIC99 (Staphylococcus aureus [6]) was > 32 µg/mL and the solubility [7] was 7280 µM (≈ 2990 µg/mL). For the same compound, the MIC99 (Staphylococcus aureus [8]) was > 32 µg/mL and the MIC99 (Staphylococcus aureus [9]) was > 32 µg/mL.
Compound `COc1ccc(N2C[C@@H](COc3ccc(N4C[C@H](CNC(C)=O)OC4=O)cc3F)OC2=O)cc1` has a logP [1] of 1.91, an MIC99 (Staphylococcus aureus [2]) of 16 µg/mL (≈ 33.8 µM) and a selectivity ratio [10] of 152. The MIC99 (Escherichia coli) was > 32 µg/mL, the MIC99 (Staphylococcus aureus [3]) was 8 µg/mL (≈ 16.9 µM) and the MIC99 [4] was > 64 µg/mL. For the same compound, the MIC99 (Staphylococcus aureus [5]) was 16 µg/mL (≈ 33.8 µM), the MIC [11] was 0.125 µg/mL (≈ 0.264 µM) and the MIC99 (Pseudomonas aeruginosa) was > 32 µg/mL. For the same compound, the MIC99 (Staphylococcus aureus [6]) was 16 µg/mL (≈ 33.8 µM), the solubility [7] was 132 µM (≈ 62.5 µg/mL) and the IC50 (Vero) was 19.1 µg/mL (≈ 40.3 µM). It also gave an MIC99 (Staphylococcus aureus [8]) of 16 µg/mL (≈ 33.8 µM) and an MIC99 (Staphylococcus aureus [9]) of 8 µg/mL (≈ 16.9 µM).
`COc1ccc(N2C[C@H](COc3ccc(N4C[C@H](CNC(C)=O)OC4=O)cc3F)OC2=O)cc1` gave a logP [1] of 1.73, an MIC99 (Staphylococcus aureus [2]) of 8 µg/mL (≈ 16.9 µM) and a selectivity ratio [10] of 428. For the same compound, the MIC99 (Escherichia coli) was > 32 µg/mL, the MIC99 (Staphylococcus aureus [3]) was 4 µg/mL (≈ 8.45 µM) and the MIC99 [4] was > 64 µg/mL. For the same compound, the MIC99 (Staphylococcus aureus [5]) was 4 µg/mL (≈ 8.45 µM), the MIC [11] was 0.25 µg/mL (≈ 0.528 µM) and the MIC99 (Pseudomonas aeruginosa) was > 32 µg/mL. The MIC99 (Staphylococcus aureus [6]) was 8 µg/mL (≈ 16.9 µM), the solubility [7] was 211 µM (≈ 99.9 µg/mL) and the IC50 (Vero) was 107 µg/mL (≈ 226 µM). It also gave an MIC99 (Staphylococcus aureus [8]) of 8 µg/mL (≈ 16.9 µM) and an MIC99 (Staphylococcus aureus [9]) of 4 µg/mL (≈ 8.45 µM).
`CC(=O)NC[C@H]1CN(c2ccc(OC[C@@H]3CNC(=O)O3)c(F)c2)C(=O)O1` showed a logP [1] of 0.01, an MIC [11] of 8 µg/mL (≈ 21.8 µM) and a solubility [7] of 2720 µM (≈ 999 µg/mL).
`CC(=O)NC[C@H]1CN(c2ccc(NC[C@H](O)COc3ccc(N4C[C@H](CNC(C)=O)OC4=O)cc3F)c(F)c2)C(=O)O1` gave a logP [1] of 0.59, an MIC [11] of 32 µg/mL (≈ 54.1 µM) and a solubility [7] of 81 µM (≈ 47.9 µg/mL).
`CC(=O)NC[C@H]1CN(c2ccc(OC[C@@H]3CN(c4ccc(N5C[C@H](CNC(C)=O)OC5=O)cc4F)C(=O)O3)c(F)c2)C(=O)O1` gave a logP [1] of 0.43, an MIC [11] of 16 µg/mL (≈ 25.9 µM) and a solubility [7] of 333 µM (≈ 206 µg/mL).
Compound `O=C1O[C@H](COc2ccccc2F)CN1c1ccccc1` has a logP [1] of 3.19, an MIC [11] of 32 µg/mL (≈ 111 µM) and a solubility [7] of 441 µM (≈ 127 µg/mL).
With `COc1ccc(NC[C@H](O)COc2ccc(N3C[C@H](CNC(C)=O)OC3=O)cc2F)cc1` the logP [1] was 0.95, the MIC99 (Staphylococcus aureus [2]) was 16 µg/mL (≈ 35.8 µM) and the MIC99 (Escherichia coli) was > 32 µg/mL. It also gave an MIC99 (Staphylococcus aureus [3]) of 4 µg/mL (≈ 8.94 µM), an MIC99 [4] of 64 µg/mL (≈ 143 µM) and an MIC99 (Staphylococcus aureus [5]) of 8 µg/mL (≈ 17.9 µM). For the same compound, the MIC [11] was 8 µg/mL (≈ 17.9 µM), the MIC99 (Pseudomonas aeruginosa) was > 32 µg/mL and the MIC99 (Staphylococcus aureus [6]) was 8 µg/mL (≈ 17.9 µM). The solubility [7] was 56 µM (≈ 25.1 µg/mL), the MIC99 (Staphylococcus aureus [8]) was 8 µg/mL (≈ 17.9 µM) and the MIC99 (Staphylococcus aureus [9]) was 4 µg/mL (≈ 8.94 µM).
In the case of `COc1ccc(NC[C@@H](O)COc2ccc(N3C[C@H](CNC(C)=O)OC3=O)cc2F)cc1`, the logP [1] is reported as 1.15, the MIC99 (Staphylococcus aureus [2]) is reported as 16 µg/mL (≈ 35.8 µM) and the MIC99 (Escherichia coli) is reported as > 32 µg/mL. For the same compound, the MIC99 (Staphylococcus aureus [3]) was 8 µg/mL (≈ 17.9 µM), the MIC99 [4] was 64 µg/mL (≈ 143 µM) and the MIC99 (Staphylococcus aureus [5]) was 16 µg/mL (≈ 35.8 µM). For the same compound, the MIC99 (Pseudomonas aeruginosa) was > 32 µg/mL, the MIC99 (Staphylococcus aureus [6]) was 16 µg/mL (≈ 35.8 µM) and the solubility [7] was 1.3 µM (≈ 0.582 µg/mL). For the same compound, the MIC99 (Staphylococcus aureus [8]) was 16 µg/mL (≈ 35.8 µM) and the MIC99 (Staphylococcus aureus [9]) was 8 µg/mL (≈ 17.9 µM).
